PMC10873978, “Novel tetrahydroisoquinolines as DHFR and CDK2 inhibitors: synthesis, characterization, anticancer activity and antioxidant properties” (BMC Chemistry, 2024)
Entries after “also recorded” stand apart in the source; their conditions may differ.

Experiments:
MCF7 cell line = experiment: In vitro cytotoxic activity, MTT method, MCF7; format: cell-based, human; settings: for IC50: Homo sapiens, MCF7, MCF7 cell line, MTT
Procedure: (§1) Cell lines: The in vitro human breast cancerous cell line (MCF7), lung cancerous cell lines (A549) and normal cell lines were purchased from Serum and Vaccine formulation in Cairo-Egypt.
(§2) In vitro cytotoxic activity of all synthesized compounds against two human breast cell line (MCF7) and lung cell lines (A549) was evaluated according to the MTT method. Firstly, Growth the cell line medium in 96 well tissue culture plate was injected with 10^5 cells/mL (100 uL/plate well) of the cell line and incubated at 37 °C for 24 h to develop a monolayer sheet then the formed growth medium was poured from 96 well microtiter plates after the confluent sheet of cells. […] Secondly, add 0.1 mL of each concentration tetrahydroisoquinoline sample to each plate. The plates were incubated at 37 °C. Thirdly MTT solution (5 mg/mL in PBS) is prepared. Add 20 µL of MTT solution to each well plates. And shaking in 150 rpm for 5 min, to mix the MTT into the media. Then incubate at (37 °C, 5% CO2) for 1–5 h. Finally read the optical density at 560 nm and subtract background at 620 nm.
(§3) In this work, doxorubicin was used as a positive control drug for comparison with the synthesized compounds under the same experimental conditions.

A549 cell line = experiment: In vitro cytotoxic activity, MTT method, A549; settings: for IC50: Homo sapiens, read-out: IC50 ± SD
Procedure: as §1, §2, §3

[1] = DPPH scavenging antioxidant activity
Procedure: The antioxidant activity of ten compounds was determined using DPPH [32–34]. A solution 1: prepared by dissolving DPPH (0.002 g) in ethanol (50 mL etnanol). Solution 2: prepared by dissolving different weights 0.05, 0.01 g of each sample in 1 mL of DMSO then take 10 µL of each sample solution with 1 mL ethanol. Then mix 1 mL of solution 1 with 1 mL of solution 2 then vortex the resulting mixture in the dark for about 30 min. The absorbance of the mixture was measured by spectrophotometer at λmax = 517 nm against blank 1 mL absolute ethanol and compared to the ascorbic acid (Vitamin C).
Ten newly synthesized compounds were studied as in vitro antioxidants by measuring of their DPPH scavenging activity which is represented as a percentage % [32]^. Results are represented by mean ± SD of three replicates. […] The higher dose concentration of 0.05 μg/mL represents higher antioxidant activity. […] The high antioxidant activity is referred to the presence of C=O, NH2, and OH groups like ascorbic acid which can be easily oxidized and reduced and can be used as antioxidant drugs. (Fig. 8 and Table 9).

CC(=O)C1C(c2ccc(N(C)C)cc2)c2c(C)nc3sc(C(=O)Nc4ccccc4)c(N)c3c2CC1(C)O (stereo not shown) [Compound 8a, 7-Acetyl-1-amino-5,8-dimethyl-8-hydroxy-6-(4-N,N-dimethylaminophenyl)-N-phenyl-6,7,8,9-tetrahydrothieno[2,3-c]isoquinoline-2-carboxamide]
IC50 (MCF7 cell line): 0.872 ± 0.003 µM
Toxicity % (MCF7 cell line; MCF7, Conc. 0.0487 µMol): -1.567%
Viability % (MCF7 cell line; MCF7, Conc. 0.0487 µMol): 101.5%
Toxicity % (MCF7 cell line; MCF7, Conc. 0.0975 µMol): -0.5332%
Viability % (MCF7 cell line; MCF7, Conc. 0.0975 µMol): 100.6%
Toxicity % (MCF7 cell line; MCF7, Conc. 0.195 µMol): -0.4085%
Viability % (MCF7 cell line; MCF7, Conc. 0.195 µMol): 100.4%
Toxicity % (MCF7 cell line; MCF7, Conc. 0.391 µMol): 8.047%
Viability % (MCF7 cell line; MCF7, Conc. 0.391 µMol): 91.95%
Toxicity % (MCF7 cell line; MCF7, Conc. 0.781 µMol): 34.56%
Viability % (MCF7 cell line; MCF7, Conc. 0.781 µMol): 65.44%
Toxicity % (MCF7 cell line; MCF7, Conc. 1.562 µMol): 65.28%
Viability % (MCF7 cell line; MCF7, Conc. 1.562 µMol): 34.72%
Toxicity % (MCF7 cell line; MCF7, Conc. 3.125 µMol): 87.21%
Viability % (MCF7 cell line; MCF7, Conc. 3.125 µMol): 12.79%
Toxicity % (MCF7 cell line; MCF7, Conc. 6.25 µMol): 94.16%
Viability % (MCF7 cell line; MCF7, Conc. 6.25 µMol): 5.842%
Toxicity % (MCF7 cell line; MCF7, Conc. 12.5 µMol): 96.9%
Viability % (MCF7 cell line; MCF7, Conc. 12.5 µMol): 3.105%
Toxicity % (MCF7 cell line; MCF7, Conc. 25 µMol): 97.43%
Viability % (MCF7 cell line; MCF7, Conc. 25 µMol): 2.574%
Toxicity % (A549 cell line; A549, Conc. 0.04875 µMol): 3.135%
Toxicity % (A549 cell line; A549, Conc. 0.0975 µMol): 3.679%
Toxicity % (A549 cell line; A549, Conc. 0.195 µMol): 4.221%
Viability % (A549 cell line; A549, Conc. 0.195 µMol): 95.78%
Toxicity % (A549 cell line; A549, Conc. 0.391 µMol): 10.77%
Viability % (A549 cell line; A549, Conc. 0.391 µMol): 89.23%
Toxicity % (A549 cell line; A549, Conc. 0.781 µMol): 39.61%
Viability % (A549 cell line; A549, Conc. 0.781 µMol): 60.39%
Toxicity % (A549 cell line; A549, Conc. 1.562 µMol): 53.57%
Viability % (A549 cell line; A549, Conc. 1.562 µMol): 46.43%
Toxicity % (A549 cell line; A549, Conc. 3.125 µMol): 74.67%
Viability % (A549 cell line; A549, Conc. 3.125 µMol): 25.33%
Toxicity % (A549 cell line; A549, Conc. 6.25 µMol): 88.24%
Viability % (A549 cell line; A549, Conc. 6.25 µMol): 11.76%
Toxicity % (A549 cell line; A549, Conc. 12.5 µMol): 96.69%
Viability % (A549 cell line; A549, Conc. 12.5 µMol): 3.314%
Toxicity % (A549 cell line; A549, Conc. 25 µMol): 97.95%
Viability % (A549 cell line; A549, Conc. 25 µMol): 2.051%
IC50 (A549 cell line): 1.045 ± 0.006 µM
DPPH scavenging, inhibition (%) ([1]; 0.01 µg/mL): 14.22 ± 1.32%
DPPH scavenging, inhibition (%) ([1]; 0.05 µg/mL): 23.66 ± 2.12%

CC(=O)C1C(c2ccc(N(C)C)cc2)c2c(C)[nH]c(=S)c(C#N)c2CC1(C)O (stereo not shown) [Compound 1, 7-Acetyl-4-cyano-1,6-dimethyl-6-hydroxy-8-(4-N,N-dimethylaminophenyl)-5,6,7,8-tetrahydroisoquinoline-3(2H)-thione]
IC50 (MCF7 cell line): 1.857 ± 0.008 µM
Toxicity % (MCF7 cell line; MCF7, 0.0487 µMol): 0.2745%
Viability % (MCF7 cell line; MCF7, 0.0487 µMol): 99.73%
Toxicity % (MCF7 cell line; MCF7, 0.0975 µMol): 0.3246%
Viability % (MCF7 cell line; MCF7, 0.0975 µMol): 99.68%
Toxicity % (MCF7 cell line; MCF7, 0.195 µMol): 0.4493%
Viability % (MCF7 cell line; MCF7, 0.195 µMol): 99.55%
Viability % (MCF7 cell line; MCF7, 0.391 µMol): 91.95%
Toxicity % (MCF7 cell line; MCF7, 0.781 µMol): 23.53%
Viability % (MCF7 cell line; MCF7, 0.781 µMol): 76.47%
Toxicity % (MCF7 cell line; MCF7, 1.562 µMol): 46.08%
Viability % (MCF7 cell line; MCF7, 1.562 µMol): 53.92%
Toxicity % (MCF7 cell line; MCF7, 3.125 µMol): 76.35%
Viability % (MCF7 cell line; MCF7, 3.125 µMol): 23.65%
Toxicity % (MCF7 cell line; MCF7, 6.25 µMol): 86.93%
Viability % (MCF7 cell line; MCF7, 6.25 µMol): 13.07%
Toxicity % (MCF7 cell line; MCF7, 12.5 µMol): 93.63%
Viability % (MCF7 cell line; MCF7, 12.5 µMol): 6.373%
Toxicity % (MCF7 cell line; MCF7, 25 µMol): 97.3%
Viability % (MCF7 cell line; MCF7, 25 µMol): 2.696%
Toxicity % (A549 cell line; A549, Conc. 0.0487 µMol): 1%
Viability % (A549 cell line; A549, Conc. 0.0487 µMol): 99%
Viability % (A549 cell line; A549, Conc. 0.0975 µMol): 98.2%
Toxicity % (A549 cell line; A549, Conc. 0.195 µMol): 3%
Viability % (A549 cell line; A549, Conc. 0.195 µMol): 97%
Toxicity % (A549 cell line; A549, Conc. 0.391 µMol): 7.89%
Viability % (A549 cell line; A549, Conc. 0.391 µMol): 92.11%
Toxicity % (A549 cell line; A549, Conc. 0.781 µMol): 21.85%
Viability % (A549 cell line; A549, Conc. 0.781 µMol): 78.15%
Toxicity % (A549 cell line; A549, Conc. 1.562 µMol): 34.99%
Viability % (A549 cell line; A549, Conc. 1.562 µMol): 65.01%
Toxicity % (A549 cell line; A549, Conc. 3.125 µMol): 59.76%
Viability % (A549 cell line; A549, Conc. 3.125 µMol): 40.24%
Toxicity % (A549 cell line; A549, Conc. 6.25 µMol): 76.21%
Viability % (A549 cell line; A549, Conc. 6.25 µMol): 23.79%
Toxicity % (A549 cell line; A549, Conc. 12.5 µMol): 90.77%
Viability % (A549 cell line; A549, Conc. 12.5 µMol): 9.231%
Toxicity % (A549 cell line; A549, Conc. 25 µMol): 96.84%
Viability % (A549 cell line; A549, Conc. 25 µMol): 3.156%
IC50 (A549 cell line): 2.219 ± 0.002 µM
DPPH scavenging, inhibition (%) ([1]; 0.01 µg/mL): 61.01 ± 0.58%
DPPH scavenging, inhibition (%) ([1]; 0.05 µg/mL): 92.3 ± 0.44%
antioxidant activity compared with Vitamin C ([1]; DPPH): higher result than Vitamin C; also recorded: higher antioxidant activity than Vitamin C
